According to paper PMC12143354, “Determining sex differences in aortic valve myofibroblast responses to drug combinations identified using a digital medicine platform” (Science Advances, 2025):
Read-outs that look alike come from different tables or passages of the source.

Legend:
female VICs [1] = test system: female VICs
Procedure: (§1) After culture on hydrogels or TCPS, the spent drug-containing media were removed, and VICs were immersed in a 4% paraformaldehyde solution in PBS for 20 min and then permeabilized for 1 hour with 0.1% Triton X-100 (Thermo Fisher Scientific) in PBS. Cells were then blocked with 5% bovine serum albumin in PBS for 1 hour at room temperature or over the weekend at 4°C. […] Last, VICs were washed once with PBS and then stored in PBS at 4°C until imaging. Gel samples were imaged in situ using a Nikon Eclipse Ti2-E and analyzed using an automated MATLAB code to quantify the αSMA gradient mean intensities and caspase-3 intensities normalized to cell mask for each cell. A minimum of 100 cells were used per gel with multiple gels used per condition.
(§2) Percent cytotoxicity was determined by designating each cell as alive or dead using caspase-3 intensity normalized to cell mask intensity, which was thresholded using a positive and negative control for cell death [10 nM staurosporine (Cell Signaling Technologies) or 1% FBS media]. The bottom value for every curve fit was set to 0, and the top value was constrained to a maximum of 100 to indicate the maximum possible effect of the drug. […] Absolute EC and CC values for % αSMA reduction and percent cytotoxicity were quantified using the top, bottom, EC50/CC50, and hillslope values estimated from the curve fits generated in GraphPad Prism (GraphPad Software Inc).

male VICs [2] = test system: male VICs
Procedure: as §1, §2

male VICs [3] = test: percent αSMA GMI reduction, male VICs on stiff hydrogels; type: cell-based, pig; settings: for EC1 / EC2 / Percent αSMA reduction, Average: male VICs; for EC1 / EC2: from dose response curves; for Percent αSMA reduction, Average: n = 3-4 gels
Procedure: (§3) Glass-bottom 96-well plates (Cellvis) were placed in an autoclave jar with a scintillation vial containing 100 μl of mercaptopropyltrimethoxysilane (MPTS; Sigma-Aldrich). The autoclave jar was then lightly sealed and placed inside an oven at 60°C for a minimum of 6 hours. The autoclave jar was opened in a chemical fume hood, and the vapor-deposited well plate was stored for up to 2 hours until ready for use. Eight-arm 20-kDa PEG-norbornene (PEG-Nb) was formed as outlined previously ([76]). A 7% (w/v) PEG-Nb hydrogel precursor solution was formed by combining phosphate-buffered saline (PBS), 20-kDa PEG-Nb at a 0.98:1 thiol-to-ene ratio, 5-kDa PEG-dithiol (Jenkem), CRGDS cell binding motif (Bachem), and lithium phenyl-2,4,6-trimethyl-benzoylphosphinate (Thermo Fisher Scientific). An EPMotion 5073l automated liquid handling system (Eppendorf) was used to pipet 7 μl of the hydrogel precursor solution into the center of each well of the vapor-deposited 96-well glass-bottom plate. The well plate with the hydrogel precursor solution was then stamped using a custom 96-well plate stamp, inverted, and cured under ultraviolet light at 10 mW/cm^2 for 3 min to induce gelation. The stamp was carefully removed by hand, and the newly formed gels were sterilized with a solution of 5% isopropyl alcohol (Thermo Fisher Scientific) in PBS for 20 min. Gels were then washed twice with PBS and stored in VIC media composed of Media199 (Life Technologies), 1% fetal bovine serum (FBS, Life Technologies), amphotericin B (1 μg/ml; Thermo Fisher Scientific), penicillin (50 U/ml; Sigma-Aldrich), and streptomycin (50 μg/ml; Sigma-Aldrich). Last, the hydrogels were placed in an incubator at 37°C with 5% carbon dioxide for up to 24 hours until experimental use.
(§4) Media changes were performed every 24 to 48 hours until cells reached ~80% confluency. […] The media solution was then aspirated, and VICs were resuspended with 1 ml of 1% FBS media. VICs were counted with an automated hemocytometer to calculate the volume of cell solution to add to each well to seed at 6400 cells per well (20,000 cells/cm^2) for TCPS and hydrogel experiments. For all experiments, VICs were seeded with 1% FBS media containing the specified drug doses and incubated at 37°C with 5% carbon dioxide with media changes every 48 to 72 hours if needed.
(§5) Drug stock solutions were discarded after two thaw cycles or after 10 months of storage. For all experiments, drug dilutions were calculated and added to VIC media to ensure that total DMSO levels remained below 1% for cytotoxicity and αSMA reduction curve fitting experiments and below 0.3% for drug combination experiments.
as §1
(§6) Curve fitting for VIC percent αSMA reduction and cytotoxicity was performed using GraphPad Prism 10 (GraphPad Software Inc). For each inhibitor, the nonlinear regression tool in Prism was used to estimate the response against the agonist by fitting the top, bottom, EC50/CC50, and hillslope to each dataset. After 2 days of culture, the percent αSMA reduction was calculated using the average αSMA gradient mean intensities of the control relative to the drug condition using Eq. 1 %αSMA reduction=100×(Control−Drug Condition/Control) (1)

[4] = ref (79) Irosustat, (80) Losartan, cited from earlier work
male VICs [5] = test: percent αSMA GMI reduction by immunofluorescent staining, male VICs on TCPS; type: cell-based, pig; settings: for reduction in αSMA GMI, initial screen: male VICs on TCPS, dosing range 10^-7 to 10^3 μM; for Percent αSMA reduction, Average: male VICs, single drug at L2 dose, n = 3 wells
Procedure: (§7) VICs were collected by aspirating off spent media, washing with PBS (Sigma-Aldrich) for 1 min, then incubating with 1× trypsin (Life Technologies) for 3 min. Trypsin was neutralized with an equal volume of 15% FBS growth media and centrifuged for 5 min at 0.2g. The media solution was then aspirated, and VICs were resuspended with 1 ml of 1% FBS media. VICs were counted with an automated hemocytometer to calculate the volume of cell solution to add to each well to seed at 6400 cells per well (20,000 cells/cm^2) for TCPS and hydrogel experiments. […] For each inhibitor, the nonlinear regression tool in Prism was used to estimate the response against the agonist by fitting the top, bottom, EC50/CC50, and hillslope to each dataset.

female VICs [6] = test: percent αSMA GMI reduction, female VICs on soft hydrogels; type: cell-based, pig; settings: n = 3 gels
From the text: (§8) Last, we tested the ability of […]-designed combinations to prevent myofibroblast activation in VICs cultured on other substrates beyond stiff hydrogels. […] Six male-optimized combinations were effective in preventing male VIC myofibroblast activation (Fig. 7K). […] Single-drug monotherapies used in the top male and female drug combinations were confirmed to have a minimal effect on male and female VIC αSMA GMI on soft hydrogels (table S14). […] After aspirating off the spent media, VICs were resuspended in 5 ml of fresh 15% FBS media and seeded on T25 Falcon tissue culture-treated flasks (Thermo Fisher Scientific). […] VICs were collected by aspirating off spent media, washing with PBS (Sigma-Aldrich) for 1 min, then incubating with 1× trypsin (Life Technologies) for 3 min. Trypsin was neutralized with an equal volume of 15% FBS growth media and centrifuged for 5 min at 0.2g. The media solution was then aspirated, and VICs were resuspended with 1 ml of 1% FBS media. VICs were counted with an automated hemocytometer to calculate the volume of cell solution to add to each well to seed at 6400 cells per well (20,000 cells/cm^2) for TCPS and hydrogel experiments. […] For each inhibitor, the nonlinear regression tool in Prism was used to estimate the response against the agonist by fitting the top, bottom, EC50/CC50, and hillslope to each dataset.

male VICs [7] = test: percent αSMA GMI reduction, male VICs on soft hydrogels; type: cell-based, pig; settings: single drug at L2 dose, n = 3 gels
From the text: as §8

female VICs [8] = test: percent αSMA GMI reduction by immunofluorescent staining, female VICs on TCPS; type: cell-based, pig; settings: for reduction in αSMA GMI, initial screen: female VICs on TCPS, dosing range 10^-7 to 10^3 μM; for Percent αSMA reduction, Average: female VICs, TCPS, n = 3 wells
Procedure: as §7

female VICs [9] = test: percent αSMA GMI reduction, female VICs on stiff hydrogels; type: cell-based, pig; settings: for EC1 / EC2: from dose response curves; for Percent αSMA reduction, Average: n = 3-4 gels
Procedure: as §3, §4, §5, §1, §6

[10] = female VICs on stiff gels, n = 3 gels
[11] = female VICs, stiff hydrogels, from dose response curves
[12] = male VICs on stiff gels, n = 3 gels
[13] = male VICs, stiff hydrogels, from dose response curves

SMILES | CC25 (percent cytotoxicity) (female VICs [1]; [10]) | CC1 (female VICs [1]; [11]) | CC2 (female VICs [1]; [11]) | CC25 (percent cytotoxicity) (male VICs [2]; [12]) | CC1 (male VICs [2]; [13]) | CC2 (male VICs [2]; [13]) | EC1 (male VICs [3]) | EC2 (male VICs [3]) | Percent αSMA reduction, Average (male VICs [3]; single drug at level 1 dose) | Percent αSMA reduction, Average (male VICs [3]; single drug at level 2 dose) | reduction in αSMA GMI, initial screen (male VICs [5]) | Percent αSMA reduction, Average (male VICs [5]; TCPS) | Percent αSMA reduction, Average (male VICs [7]) | reduction in αSMA GMI, initial screen (female VICs [8]) | EC1 (female VICs [9]) | EC2 (female VICs [9]) | Percent αSMA reduction, Average (female VICs [9]; single drug at level 1 dose) | Percent αSMA reduction, Average (female VICs [9]; single drug at level 2 dose) | Percent αSMA reduction, Average (female VICs [6]; single drug at L2 dose) | Percent αSMA reduction, Average (female VICs [8]; single drug at L2 dose) | further results
NS(=O)(=O)Oc1ccc2c3c(c(=O)oc2c1)CCCCC3 [Irosustat] | 109 µM | 50.2 µM | 57.9 µM | 125 µM | 48.5 µM | 58.7 µM | 92.6 µM | 106.3 µM | 0.84% | 0.67% | > 25% | -1.15% | -10.38% | > 25% | 74.4 µM | 84.7 µM | 9.62% | -0.55% |  |  | Cmax ([4]; read-out: 5% Cmax, 5% of Cmax from FDA documents and clinical studies): 10.6 nM; Cmax ([4]; read-out: 10% Cmax, 10% of Cmax from FDA documents and clinical studies): 21.2 nM; Percent αSMA reduction, Average (female VICs [6]; single drug at L1 dose): 4.80%; Percent αSMA reduction, Average (female VICs [8]; single drug at L1 dose): 1.88%
CCCCc1nc(Cl)c(CO)n1Cc1ccc(-c2ccccc2-c2nn[nH]n2)cc1 [Losartan] |  |  |  |  |  |  | 18.7 µM | 32.9 µM | 5.58% | 0.99% | > 25% | -1.33% | 0.81% | > 25% | 154 µM | 219 µM | 7.00% | 2.37% | 2.73% | 1.39% | CC1 (female VICs [1]; female, pig): 11.1 µM; CC2 (female VICs [1]; female, pig): 27 µM; CC25 (percent cytotoxicity) (female VICs [1]; female, pig): 927 µM; CC1 (male VICs [2]; male, pig): 378 µM; CC2 (male VICs [2]; male, pig): 470 µM; CC25 (percent cytotoxicity) (male VICs [2]; male, pig): 1,123 uM; sex difference in efficacy (male versus female EC20) (male VICs [3]; unpaired two-tailed t test, P < 0.05): reducing αSMA GMI more in male VICs relative to female VICs; sex difference in efficacy (male versus female EC20) (male VICs [5]; TCPS, unpaired two-tailed t test, P < 0.05): significantly more effective in male VICs relative to female VICs
Fc1ccc(Cl)cc1-c1nc(Nc2ccncc2)c2nccnc2n1 [SD-208] | 70.1 µM | 34.8 µM | 40.1 µM | 58.9 µM | 26.6 µM | 31.1 µM | 0.0582 µM | 0.188 µM | 14.60% | 0.63% | > 25% | 7.80% | 5.58% | > 25% | 0.0061 µM | 0.0275 µM | 4.19% | 8.81% | 9.37% | 3.05% | 
